“And” between values parts separate entries of the source, which are not always exact repeats. Equal values may be shown once.
Tests used:
rats = tested on: rats
Experimental: The compound prepared according to Example 1 was subjected to a toxicity study in accordance with techniques well-known in the art. The study was conducted on rats over a three-day testing period.

[1] = prior-art antisickling agent; cited from earlier work
[2] = second day, 0.01% dosage, individual rats #A-#D, listed as active agent

| Compound | rats killed after administration of the drug formulation (rats; rats, three days, 0.001%, 0.01%, 0.1% of rat weight on days 1, 2, 3) | toxicity (rats; rats, three-day study, 0.001%, 0.01%, 0.1% of rat weight) | Body Fluid Concentraton 0.01% (rats; [2]) | Weight After (rats; [2]) | Weight Before (rats; [2]) | Weight Change (rats; [2]) | toxicity [1] |
| --- | --- | --- | --- | --- | --- | --- | --- |
| Cc1c(C)c2c(c(C)c1OC(=O)C(N)CC[S+](C)CC1OC(n3cnc4c(N)ncnc43)C(O)C1O)CCC(C)(CCCC(C)CCCC(C)CCCC(C)C)O2.[I-] (stereo not drawn) [Example 1, α-(S-adenosylmethionine)-O-tocopherol] | none of the rats tested were killed | substantially non-toxic | 0.14 and 0.07 | 28.5 grams and 26.4 grams and 29.5 grams | 28.3 grams and 26.3 grams and 29.4 grams | 0.2 grams and 0.1 grams |  |
| N#CO [potassium cyanate] |  |  |  |  |  |  | rather high toxicity |
